Reference: publication PMC7970304, “The Effects of Apelin and Elabela Ligands on Apelin Receptor Distinct Signaling Profiles” (Frontiers in Pharmacology, 2021)

What was measured:
Type in all cases: cell-based
[1] = tested on: APJ–β-arrestin 2 interaction; experiment: BRET recruitment of β-arrestin 2 to APJ; conditions: for log (τ/KA): Black–Leff operational model; for Bias factor / Log (Bias): APJ-β-arrestin 2 over Ca2+, reference Apelin-13; for Log (Bias): footnote a = statistically insignificant
Method: (§1) To detect the potencies of different peptide ligands for APJ in living cells, real-time kinetic bioluminescence resonance energy transfer (BRET) assays were carried out as follows. HEK293 cells were grown to 80–90% confluence in 24-well plates and transiently transfected with various Rluc-, EYFP-, or Venus-tagged constructs ([Chen et al., 2014]; [Liu et al., 2016]). Approximately 36 h after transfection, the long-acting luciferase substrate EnduRen (E6481, Promega, Beijing Biotech Co., Ltd.) was added to each well at a final concentration of 60 μM and cells were incubated for 2 h at 37°C in a 5% CO2 incubator. BRET experiments were carried out using a Mithras LB941 plate reader (Berthold Technologies, Bad Wildbad, Germany) with three filters: a Rluc filter (400–475 nm), a Venus filter (515–575 nm) and an EGFP filter (500–550 nm) ([Liu et al., 2016]; [Ji et al., 2017]). The BRET ratio was calculated as the ratio of the emission at 535 ± 30 nm to that at 485 ± 20 nm. The results are expressed as the mBRET (mBRET = 1,000 × BRET ratio) ([Pfleger et al., 2006a]; [Pfleger et al., 2006b]). We use high glucose as a negative control group.
(§2) HEK293 cells were transiently co-transfected with the designated Rluc and GFP2 or Venus or EYFP-labeled constructs. Twenty-four hours after transfection, the cells were harvested in phenol red free medium containing 5% FCS in HEPES buffer and seeded in 96 well white microplate coated with poly-D-lysine. After 24 h, cells were washed twice in PBS and re-suspended in PBS containing 0.5 mM MgCl2 and 0.1% glucose. Coelenterazine h substrate was added at a final concentration of 5 μM in the total volume of 50 μL/well. Kinetic-response and dose-response curve of the recruitment of GRKs or β-arrestin 1 and β-arrestin 2 or AP2 to the APJ by six peptides measured by BRET. […] The BRET signals between receptor and GRKs/β-arrestin1 and 2/AP2 were recorded at 10 min (GRK2/5) or 15 min (β-arrestin1 and) or 30 min (AP2) after agonist stimulation. We use high glucose as a control group. BRET assays were performed as described previously ([Xue et al., 2018]). […] This signal is defined as the ligand induced BRET ratio.
(§3) The concentration-response data for the ligands in various assays were analyzed to determine the biases of the ligands for G protein dependent signaling or β-arrestin dependent signaling, according to a previously published method ([Kenakin et al., 2012]; [Hager et al., 2016]; [Hothersall et al., 2017]). Briefly, the concentration-response data for each ligand were fitted to the Black–Leff operation model to obtain the values of τ and K A, using the following equation: Response=[A]^nτ^nEm/[A]^nτ^n+([A]KA)^n where [A] is the concentration of the agonist, E m is the maximal response of the system, n is the transducer slope, and K A and τ describe the affinity and efficacy of the agonist, respectively. In the data fitting, the reparametrized form of the equation proposed by [Kenakin et al. (2012)] was used: Response=Em/1+exp{nln[1+exp(β1)/[A]]−nβ2} where β 1 and β 2 are the natural logarithm of K A and τ, respectively, and E m was set to 1. Thus, for each concentration-response curve, a non-linear regression was performed to fit the above equation to give β 1 and β 2 (as well as n). Log (τ/K A) values (“transduction coefficients”) for each ligand vs. each pathway were obtained. […] The ΔΔlog (τ/K A), or Log (Bias), which is the logarithm of the bias factor for a given pathway over a reference pathway (here, intracellular calcium release), was calculated for each ligand as Δlog (τ/K A)–Δlog (τ/K A)Calcium. The 95% confidence interval (CI) was expressed as the mean ± standard error; Log (Bias) values, whose 95% CI crosses 0, were considered statistically insignificant.
(§4) The data were analyzed using GraphPad Prism v5.0. All the data are presented as the mean ± SEM.

APJ–GRK2 interaction = experiment: BRET recruitment of GRK2 to APJ; conditions: for log (τ/KA) / Δlog (τ/KA): APJ-GRK2; for log (τ/KA): Black–Leff operational model; for Δlog (τ/KA): relative to Apelin-13; for Bias factor / Log (Bias): APJ-GRK2 over Ca2+, reference Apelin-13; for Log (Bias): footnote a = statistically insignificant
Method: as §1, §2, §3, §4

[2] = tested on: APJ–β-arrestin 1 interaction; experiment: BRET recruitment of β-arrestin 1 to APJ; conditions: for log (τ/KA) / Δlog (τ/KA): APJ-β-arrestin1; for log (τ/KA): Black–Leff operational model; for Δlog (τ/KA): relative to Apelin-13; for Bias factor / Log (Bias): APJ-β-arrestin1 over Ca2+, reference Apelin-13
Method: as §1, §2, §3, §4

SMILES: CSCC[C@H](NC(=O)[C@@H]1CSSC[C@H](NC(=O)[C@H](CC(N)=O)NC(=O)[C@H](Cc2c[nH]cn2)NC(=O)[C@H](CCCCN)NC(=O)[C@H](CCCNC(=N)N)NC(=O)[C@@H](N)CC(C)C)C(=O)N[C@@H](CC(C)C)C(=O)N[C@@H](CCC(N)=O)C(=O)N[C@@H](CCCNC(=N)N)C(=O)N[C@@H](CCCNC(=N)N)C(=O)N1)C(=O)N1CCC[C@H]1C(=O)N[C@@H](CC(C)C)C(=O)N[C@@H](Cc1c[nH]cn1)C(=O)N[C@@H](CO)C(=O)N[C@@H](CCCNC(=N)N)C(=O)N[C@H](C(=O)N1CCC[C@H]1C(=O)N[C@@H](Cc1ccccc1)C(=O)N1CCC[C@H]1C(=O)O)C(C)C [Elabela-21]
- log (τ/KA) ([1]; APJ-β-arrestin 2): −2.1 ± 0.1
- Δlog (τ/KA) ([1]; APJ-β-arrestin 2, relative to Apelin-13): 0.3 ± 0.1
- Bias factor [1]: 73.6
- Log (Bias) [1]: 1.9 ± 0.2
- log (τ/KA) (APJ–GRK2 interaction): −1.5 ± 0.2
- Δlog (τ/KA) (APJ–GRK2 interaction): 0.6 ± 0.3
- Bias factor (APJ–GRK2 interaction): 169.0
- Log (Bias) (APJ–GRK2 interaction): 2.2 ± 0.4
- log (τ/KA) [2]: −1.9 ± 0.1
- Δlog (τ/KA) [2]: 0.6 ± 0.1
- Bias factor [2]: 146.2
- Log (Bias) [2]: 2.2 ± 0.2

SMILES: CSCC[C@H](NC(=O)[C@@H](NC(=O)[C@H](CC(C)C)NC(=O)[C@H](CC(N)=O)NC(=O)[C@@H](NC(=O)[C@@H]1CCCN1C(=O)[C@H](CCCNC(=N)N)NC(=O)[C@@H](N)CCC(N)=O)C(C)C)[C@@H](C)O)C(=O)N[C@@H](CCCNC(=N)N)C(=O)N[C@@H](CCCNC(=N)N)C(=O)N[C@@H](CCCCN)C(=O)N[C@@H](CC(C)C)C(=O)N[C@@H](CCCNC(=N)N)C(=O)N[C@@H](CCCCN)C(=O)N[C@@H](Cc1c[nH]cn1)C(=O)N[C@@H](CC(N)=O)C(=O)N[C@H]1CSSC[C@@H](C(=O)N[C@@H](CCSC)C(=O)N2CCC[C@H]2C(=O)N[C@@H](CC(C)C)C(=O)N[C@@H](Cc2c[nH]cn2)C(=O)N[C@@H](CO)C(=O)N[C@@H](CCCNC(=N)N)C(=O)N[C@H](C(=O)N2CCC[C@H]2C(=O)N[C@@H](Cc2ccccc2)C(=O)N2CCC[C@H]2C(=O)O)C(C)C)NC(=O)[C@H](CCCNC(=N)N)NC(=O)[C@H](CCCNC(=N)N)NC(=O)[C@H](CCC(N)=O)NC(=O)[C@H](CC(C)C)NC1=O [Elabela-32]
- log (τ/KA) ([1]; APJ-β-arrestin 2): −0.4 ± 0.1
- Bias factor [1]: 6,138.2
- Log (Bias) [1]: 3.8
- Log (Bias) ([1]; listed as ELA-32): 3.8 ± 0.2
- bias over calcium release ([1]; APJ–β-arrestin 2): > 6,000 fold
- log (τ/KA) (APJ–GRK2 interaction): −0.8 ± 0.2
- Δlog (τ/KA) (APJ–GRK2 interaction): 1.3 ± 0.3
- Bias factor (APJ–GRK2 interaction): 1,604.0
- Log (Bias) (APJ–GRK2 interaction): 3.2
- Log (Bias) (APJ–GRK2 interaction; listed as ELA-32): 3.2 ± 0.4
- bias over calcium release (APJ–GRK2 interaction; APJ–GRK2): > 1,500 fold
- log (τ/KA) [2]: −1.0 ± 0.1
- Δlog (τ/KA) [2]: 1.4 ± 0.1
- Bias factor [2]: 1978.4
- Log (Bias) [2]: 3.3
- Log (Bias) ([2]; listed as ELA-32): 3.3 ± 0.2
- bias over calcium release ([2]; APJ–β-arrestin 1): > 1,500 fold
- APJ–β-arrestin 1 BRET signal (in words) ([2]; dose-response, 15 min): significantly higher than those induced by the other peptide ligands
